The values that follow come from patent US9133186B2, “Hetero ring-fused imidazole derivative having AMPK activating effect” (Shionogi & Co., Ltd., priority 2010, dated 2015).

For assay [1], the target named is T1, Human AMPK α2β2γ1 (Homo sapiens, UniProt O43741+P54646).
T1 construct: The full length cDNAs of human AMPK P2 (NM_005399.3) and human AMPK α2 (NM_006252.3); 6×His (N); made in house; host or cells: Escherichia coli BL21 CodonPlus (DE3)-RIL
Kind of assay: AMPK activator evaluation, Test Example 2 (CaMKK2-phosphorylated enzyme, mobility shift). It counts as biochemical. The conditions noted are these: human AMPK α2β2γ1 phosphorylated with CaMKK2, control = 100%; for Emax: read-out: Emax (maximum rate of increase in activity within the measurement range). The protocol:
The full length cDNAs of human AMPK P2 (NM_005399.3) and human AMPK α2 (NM_006252.3) were inserted into the MCS1 and MCS2 of the pETDuet-1 vector to prepare a human AMPK β2 and human AMPK α2 (6×His tag at the 5′ terminus) expressing plasmid. The plasmid was contransfected with an expression plasmid, in which the full length cDNA of human AMPK γ1 (NM_002733.3) had been inserted into pET28b(+), into BL21 CodonPlus (DE3)-RIL to obtain an expression strain. The expression strain was cultured in TB medium, followed by induction with 0.5 mM IPTG, and cultured at 25° C. for 3 hours and then harvested. After ultrasonication, supernatant was collected and applied to Histrap column (GE) and RESOUECE Q 6 ml column (GE) to prepare 12.5 mg of purified sample containing three types of subunit from 1.8 L of broth.
An expression vector, in which the full length cDNA of human CAMKK β (NM_172226.1) had been inserted into pGEX-6P-3, was transfected into BL21 Star (DE3). The expression strain was cultured in TB medium, followed by induction with 0.5 mM IPTG, and cultured at 25° C. for 3 hours and then harvested. After ultrasonication, supernatant was collected and applied to GSTrap FF column (GE) to prepare 14 mg of GST-fused CAMKK β from 720 ml of broth.
Thus, phosphorylation treatment was carried out as pretreatment.
Human AMPK α2β2γ1 in an amount to give a conversion rate of approximately 10% by reaction for 2 hours, and CaMKK2 in an amount capable of sufficiently imparting activity to AMPK for one hour were mixed in a buffer solution consisting of a 50 mM HEPES-NaOH buffer solution (pH 7.0), 100 mM NaCl, 5 mM magnesium chloride, 0.1% bovine serum albumin, 0.2 mM sodium orthovanadate(V), 1 mM ethylene glycol-bis(2-aminoethyl ether)-N,N,N′,N′-tetraacetic acid (EGTA), 5 mM disodium β-glycerophosphate, 1 mM dithiothreitol and 0.2 mM ATP, and the obtained liquid was left to stand at 25° C. for 1 to 1.5 hours to sufficiently phosphorylate AMPK.
After that, to the enzyme liquid, which had been subjected to phosphorylation treatment, a compound dissolved in DMSO was added so as to have a 1% DMSO concentration. The obtained liquid was left to stand for 10 minutes.
To the liquid, a substrate solution consisting of a 50 mM HEPES-NaOH buffer solution (pH 7.0), 100 mM NaCl, 10 mM magnesium chloride, 0.1% bovine serum albumin, 0.2 mM sodium orthovanadate(V), 1 mM ethylene glycol-bis(2-aminoethyl ether)-N,N,N′,N′-tetraacetic acid (EGTA), 5 mM disodium glycerophosphate, 2 mM dithiothreitol, 0.4 mM ATP and 3 μM FL-Peptide 7 (manufactured by Caliper Life Sciences, Inc.) was added in equal amount (10 μl in total). The obtained liquid was allowed to react at 25° C. for 2 hours, and 10 μl of 20 mM EDTA was then added thereto to stop the reaction.
(§1) To detect phosphorylated fluorescent substrates, the reaction liquid was applied to a measuring device, LabChip EZ Reader II manufactured by Caliper Life Science, Inc., for detecting fluorescence by using differences in mobility due to differences in charge. The setting conditions for the device were pressure, −1.5 PSI; upstream voltage, −2250 V; downstream voltage, −400 V; post sample buffer sip time, 40 seconds; final delay, 120 seconds; and peak order, Product First.
A conversion rate was calculated from the peak heights of the resulting substrate and product. The conversion rate when not containing a compound was used as a control, and a concentration dependent curve was made by plotting the rate of increase in activity to the control at each concentration of a compound.

In assay [2] the target is T2, human AMPK α1β1γ1 enzyme (Homo sapiens, UniProt Q13131+Q9Y478).
T2 construct: purchased Carna Biosciences, Inc
Put plainly: AMPK activator evaluation, Test Example 1 (mobility shift, FL-Peptide 7). The format is biochemical. The conditions noted are these: human AMPK α1β1γ1, control without compound = 100%; for Emax: read-out: Emax (maximum rate of increase in activity within the measurement range). The protocol:
To a buffer solution consisting of a 50 mM HEPES-NaOH buffer solution (pH 7.0), 100 mM NaCl, 10 mM magnesium chloride, 0.1% bovine serum albumin, 0.2 mM sodium orthovanadate(V), 1 mM ethylene glycol-bis(2-aminoethyl ether)-N,N,N′,N′-tetraacetic acid (EGTA), 5 mM disodium (3-glycerophosphate and 2 mM dithiothreitol, a human AMPK α1β1γ1 enzyme (manufactured by Carna Biosciences, Inc.) was added in an amount to give a conversion rate of approximately 10% by reaction for 2 hours, and a compound dissolved in DMSO was added thereto so as to have a 1% DMSO concentration. The obtained liquid was left to stand for 10 minutes.
To the liquid, a substrate solution consisting of a 50 mM HEPES-NaOH buffer solution (pH 7.0), 100 mM NaCl, 10 mM magnesium chloride, 0.1% bovine serum albumin, 0.2 mM sodium orthovanadate(V), 1 mM ethylene glycol-bis(2-aminoethyl ether)-N,N,N′,N′ tetraacetic acid (EGTA), 5 mM disodium β-glycerophosphate, 2 mM dithiothreitol, 0.4 mM ATP and 3 μM FL-Peptide 7 (manufactured by Caliper Life Sciences, Inc.) was added in equal amount (10 μl in total). The obtained liquid was allowed to react at 25° C. for 2 hours, and 10 μl of 20 mM EDTA was then added thereto to stop the reaction.
as §1

Molecules are shown by their SMILES.

T2 sequence (Q13131 10-559 limits assumed): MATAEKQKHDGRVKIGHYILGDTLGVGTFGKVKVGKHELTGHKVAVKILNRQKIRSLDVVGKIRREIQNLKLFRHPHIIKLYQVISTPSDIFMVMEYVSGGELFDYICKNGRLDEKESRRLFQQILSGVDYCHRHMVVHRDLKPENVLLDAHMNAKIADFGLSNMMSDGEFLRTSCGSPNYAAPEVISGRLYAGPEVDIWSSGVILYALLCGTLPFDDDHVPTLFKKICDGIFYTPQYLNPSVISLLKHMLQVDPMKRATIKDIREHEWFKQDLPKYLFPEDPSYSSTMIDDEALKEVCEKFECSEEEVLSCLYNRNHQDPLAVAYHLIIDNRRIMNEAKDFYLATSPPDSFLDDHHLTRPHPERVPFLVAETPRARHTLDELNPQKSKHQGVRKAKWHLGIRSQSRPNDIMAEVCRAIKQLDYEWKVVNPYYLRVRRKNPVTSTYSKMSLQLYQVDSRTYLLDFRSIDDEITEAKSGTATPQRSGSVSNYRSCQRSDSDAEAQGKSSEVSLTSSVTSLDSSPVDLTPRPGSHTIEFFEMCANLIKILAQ
T2 sequence (Q9Y478 whole entry): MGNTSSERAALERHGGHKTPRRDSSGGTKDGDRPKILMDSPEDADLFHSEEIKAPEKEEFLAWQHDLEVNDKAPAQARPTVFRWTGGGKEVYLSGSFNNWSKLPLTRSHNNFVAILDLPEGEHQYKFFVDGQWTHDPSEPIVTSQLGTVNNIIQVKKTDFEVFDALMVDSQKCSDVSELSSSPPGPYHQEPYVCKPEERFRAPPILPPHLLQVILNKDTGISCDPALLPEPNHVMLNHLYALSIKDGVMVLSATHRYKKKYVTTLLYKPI
T2 sequence (P54619 whole entry partner): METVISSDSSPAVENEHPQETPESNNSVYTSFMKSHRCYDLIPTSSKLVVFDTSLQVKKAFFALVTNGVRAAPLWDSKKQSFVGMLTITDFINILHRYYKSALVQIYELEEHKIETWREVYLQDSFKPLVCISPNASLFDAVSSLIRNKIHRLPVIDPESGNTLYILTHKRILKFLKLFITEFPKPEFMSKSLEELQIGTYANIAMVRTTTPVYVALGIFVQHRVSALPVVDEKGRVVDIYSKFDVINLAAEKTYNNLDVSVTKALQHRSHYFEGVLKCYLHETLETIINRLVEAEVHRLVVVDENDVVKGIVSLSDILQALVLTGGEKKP
T1 sequence (P54646 whole entry): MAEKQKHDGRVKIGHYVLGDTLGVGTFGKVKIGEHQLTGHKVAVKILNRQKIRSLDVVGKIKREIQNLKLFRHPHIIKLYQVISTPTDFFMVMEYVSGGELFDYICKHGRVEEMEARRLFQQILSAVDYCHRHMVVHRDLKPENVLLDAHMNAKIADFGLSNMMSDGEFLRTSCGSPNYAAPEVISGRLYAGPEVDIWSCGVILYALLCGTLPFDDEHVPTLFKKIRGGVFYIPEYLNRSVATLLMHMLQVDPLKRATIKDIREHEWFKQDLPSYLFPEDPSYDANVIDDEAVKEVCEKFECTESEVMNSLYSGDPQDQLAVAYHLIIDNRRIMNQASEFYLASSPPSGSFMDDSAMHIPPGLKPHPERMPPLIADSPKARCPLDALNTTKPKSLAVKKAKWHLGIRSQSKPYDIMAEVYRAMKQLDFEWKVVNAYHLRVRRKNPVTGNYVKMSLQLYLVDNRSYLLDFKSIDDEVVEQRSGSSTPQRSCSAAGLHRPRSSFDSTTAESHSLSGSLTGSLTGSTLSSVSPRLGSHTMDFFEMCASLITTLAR
T1 sequence (O43741 whole entry): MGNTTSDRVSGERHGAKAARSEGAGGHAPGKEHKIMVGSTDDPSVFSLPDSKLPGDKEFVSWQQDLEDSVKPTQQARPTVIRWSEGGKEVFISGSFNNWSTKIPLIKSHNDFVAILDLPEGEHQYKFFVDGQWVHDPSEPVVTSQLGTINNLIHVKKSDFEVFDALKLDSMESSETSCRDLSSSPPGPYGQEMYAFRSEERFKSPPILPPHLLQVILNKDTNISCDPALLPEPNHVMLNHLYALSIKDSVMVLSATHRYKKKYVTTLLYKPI
T1 sequence (P54619 whole entry partner): as the sequence (P54619 whole entry partner) above

As usually defined, the Emax is the size of the effect at its maximum, as opposed to the concentration needed. As for `Cc1ccc(Oc2nc3nc(-c4ccc5c(ccn5C)c4)c(Cl)cc3[nH]2)cc1C(=O)O` [Compound A-2], in assay [1], the “EC150 (compound concentration showing 150% relative to the control)” value is reported as 74 nM and the Emax came out at 406%. Also, in assay [2], the “EC150 (compound concentration showing 150% relative to the control)” value is 7 nM and the Emax turned out to be 408%.
Regarding `O=C(O)c1ccc(Oc2nc3nc(-c4ccc(N5CCOCC5)cc4)c(Cl)cc3[nH]2)cc1` [Compound B-101], in assay [1], the “EC150 (compound concentration showing 150% relative to the control)” value came to 1300 nM and the Emax is 212%. In assay [2], the “EC150 (compound concentration showing 150% relative to the control)” value is recorded as 120 nM and the Emax was found to be 269%.
Take `Cc1ccc(C(=O)O)cc1Oc1nc2nc(-c3ccc(N4CCOCC4)cc3)c(Cl)cc2[nH]1` [Compound B-108]: in assay [1], the “EC150 (compound concentration showing 150% relative to the control)” value was 410 nM and the maximal effect (Emax) stood at 341%. In addition, in assay [2], the “EC150 (compound concentration showing 150% relative to the control)” value turned out to be 27 nM and the Emax is 340%.
Consider `Cc1ccc(Oc2nc3nc(-c4ccc(N5CCOCC5)cc4)c(Cl)cc3[nH]2)cn1` [Compound B-119], for which, in assay [1], the “EC150 (compound concentration showing 150% relative to the control)” value is 240 nM and the maximum response (Emax) turned out to be 242%. In assay [2], the “EC150 (compound concentration showing 150% relative to the control)” value came out at 220 nM and the maximal effect (Emax) turned out to be 265%.
For `Cc1ccc(Oc2nc3cc(Cl)c(-c4ccc(-c5ccccc5O)cc4)nc3[nH]2)cc1C(=O)O` [Compound C-4], in assay [1], the “EC150 (compound concentration showing 150% relative to the control)” value was found to be 4.3 nM and the maximum response (Emax) was 292%. In assay [2], the “EC150 (compound concentration showing 150% relative to the control)” value is 0.42 nM and the maximal effect (Emax) turned out to be 355%.
For `Cc1ccc(Oc2nc3nc(-c4ccc(N5CCOCC5)cc4)c(Cl)cc3[nH]2)cc1C(N)=O` [Compound C-12], in assay [1], the “EC150 (compound concentration showing 150% relative to the control)” value is recorded as 130 nM and the maximal effect (Emax) stood at 293%. Also, in assay [2], the “EC150 (compound concentration showing 150% relative to the control)” value is given as 140 nM and the Emax was found to be 256%.
Take `O=C(O)C1(c2ccc(Oc3nc4nc(-c5ccc(N6CCCC6)cc5)c(Cl)cc4[nH]3)cc2)CC1` [Compound C-94]: in assay [1], the “EC150 (compound concentration showing 150% relative to the control)” value is recorded as 59 nM and the Emax came to 325%. For the same compound, in assay [2], the “EC150 (compound concentration showing 150% relative to the control)” value was determined as 12 nM and the maximal response (Emax) came to 352%.
With `Cc1ncc(Oc2nc3nc(-c4ccc(N5CCOCC5)cc4)c(Cl)cc3[nH]2)cn1` [Compound C-106], in assay [1], the “EC150 (compound concentration showing 150% relative to the control)” value is 580 nM and the Emax stood at 290%. For the same compound, in assay [2], the “EC150 (compound concentration showing 150% relative to the control)” value worked out at 690 nM and the Emax stood at 278%.
As to `CC(=O)NC(C)(C)c1ccc(Oc2nc3nc(-c4ccc(N5CCC(O)C5)cc4)c(Cl)cc3[nH]2)cc1` [Compound D-49], in assay [1], the “EC150 (compound concentration showing 150% relative to the control)” value was 54 nM and the maximal effect (Emax) was found to be 420%. In assay [2], the “EC150 (compound concentration showing 150% relative to the control)” value worked out at 3.5 nM and the maximal effect (Emax) is 263%.
As for `CC(C)(C)C(=O)NC(C)(C)c1ccc(Oc2nc3nc(-c4ccc(N5CCOCC5)cc4)c(Cl)cc3[nH]2)cc1` [Compound D-65], in assay [2], the “EC150 (compound concentration showing 150% relative to the control)” value is on record as 42 nM and the maximal effect (Emax) was 252%.
In the case of `CC(=O)NC(C)(C)c1ccc(Oc2nc3nc(-c4ccc(C5=CCOCC5)cc4)c(Cl)cc3[nH]2)cn1` [Compound D-70], in assay [2], the “EC150 (compound concentration showing 150% relative to the control)” value is on record as 180 nM and the maximal effect (Emax) is 214%.
In the case of `CC(C)(C(N)=O)c1ccc(Oc2nc3nc(-c4ccc(C5(CO)CC5)cc4)c(Cl)cc3[nH]2)cn1` [Compound D-71], in assay [2], the “EC150 (compound concentration showing 150% relative to the control)” value was found to be 860 nM and the Emax is 174%.
The corresponding values for `CC(C)(CO)c1ccc(Oc2nc3nc(-c4ccc(C5(CO)CC5)cc4)c(Cl)cc3[nH]2)cn1` [Compound D-72] are 220 nM and 192%.
`CC(=O)NC(C)(C)c1ccc(Oc2nc3nc(-c4ccc(C5=CCOCC5)cc4)c(Cl)cc3[nH]2)cc1` [Compound D-73]: in assay [2], the “EC150 (compound concentration showing 150% relative to the control)” value is 17 nM and the maximal response (Emax) came to 254%.
`CONC(=O)C(C)(C)c1ccc(Oc2nc3nc(-c4ccc(N5CCOCC5)cc4)c(Cl)cc3[nH]2)cn1` [Compound D-102]: in assay [2], the “EC150 (compound concentration showing 150% relative to the control)” value amounted to 4300 nM and the maximal effect (Emax) turned out to be 172%.
For `CC(=O)NC(C)(C)c1ccc(Oc2nc3nc(-c4ccc(C5(C(C)O)CC5)cc4)c(Cl)cc3[nH]2)cc1` [Compound D-103], in that order: 110 nM and 238%.
As to `CC(=O)NC(C)(C)c1ccc(Oc2nc3nc(-c4ccc(C5CCOCC5)cc4)c(Cl)cc3[nH]2)cc1` [Compound D-107], in assay [2], the “EC150 (compound concentration showing 150% relative to the control)” value is given as 26 nM and the maximal effect (Emax) was 249%.
As for `CC(=O)NC(C)(C)c1ccc(Oc2nc3nc(-c4ccc(C5=CCN(C)CC5)cc4)c(Cl)cc3[nH]2)cc1` [Compound D-108], in assay [2], the “EC150 (compound concentration showing 150% relative to the control)” value is 3.3 nM and the maximal response (Emax) was 301%.
As to `CC(=O)NCCCOc1ccc(-c2nc3nc(Oc4ccc(C(C)(C)NC(C)=O)cc4)[nH]c3cc2Cl)cc1` [Compound D-109], in assay [2], the “EC150 (compound concentration showing 150% relative to the control)” value was 18 nM and the Emax was determined as 270%.
Take `CC(=O)NC(C)(C)c1ccc(Oc2nc3nc(-c4ccc(C5(CO)COC5)cc4)c(Cl)cc3[nH]2)cc1` [Compound D-110]: in assay [2], the “EC150 (compound concentration showing 150% relative to the control)” value is recorded as 270 nM and the maximal effect (Emax) amounted to 220%.
The corresponding values for `CC(=O)NC(C)(C)c1ccc(Oc2nc3nc(-c4ccc(C5COC5)cc4)c(Cl)cc3[nH]2)cc1` [Compound D-111] are 150 nM and 238%.
